Experimental data taken from patent publication US20260262643A1, “HERBICIDAL BENZOXAZINES” (FMC CORPORATION, priority 2022, published 2026).
Read-outs that look alike come from different tables or passages of the source.

What was measured:
blackgrass = assay: Test A postemergence; assay type: in vivo, Alopecurus myosuroides; details: postemergence, 10 days
How it was run: (§1)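 Seeds in loam–sand blend received a directed preemergence soil spray of compound in non-phytotoxic solvent with surfactant; postemergence plants (2–10 cm, one- to two-leaf stage) were sprayed with the same formulation. After 10 days in greenhouse, injury was rated visually versus untreated controls, 0 (no effect) to 100 (complete control).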

wheat = assay: Test A postemergence; assay type: in vivo, Triticum aestivum; details: postemergence, 10 days, 0 to 100 scale (0 no effect, 100 complete control); for plant injury at 125 g/ha: 125 g ai/ha, read-out: Wheat plant response rating
How it was run: as §1

oat, wild [1] = assay: Test A preemergence; assay type: in vivo, Avena fatua; details: for pest or weed control at 125 g/ha: 125 g ai/ha
How it was run: as §1

oat, wild [2] = assay: Test A postemergence; assay type: in vivo, Avena fatua; details: postemergence, 10 days
How it was run: as §1

ragweed = assay: Test A preemergence; assay type: in vivo, Ambrosia artemisiifolia; details: for pest or weed control at 125 g/ha: 125 g ai/ha
How it was run: as §1

pigweed, palmer [3] = assay: Test A postemergence; assay type: in vivo, Amaranthus palmeri; details: postemergence, 10 days, 0 to 100 scale (0 no effect, 100 complete control); for pest or weed control at 125 g/ha: 125 g ai/ha, read-out: Pigweed, Palmer plant response rating
How it was run: as §1

barnyardgrass = assay: Test B flooded paddy test; assay type: in vivo, Echinochloa crus-galli; details: 250 g ai/ha, Flood, 13 days, 0 to 100 scale (0 no effect, 100 complete control)
How it was run: (§2)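 Compound is introduced into paddy water covering soil by 3 cm, treating plants that have reached two leaves. Pots are kept flooded at that depth under greenhouse conditions. Assessment at 13 days gives a 0–100 visual control score.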

kochia = assay: Test A postemergence; assay type: in vivo, Bassia scoparia; details: postemergence, 10 days, 0 to 100 scale (0 no effect, 100 complete control); for pest or weed control at 125 g/ha: 125 g ai/ha, read-out: Kochia plant response rating
How it was run: as §1

foxtail, giant = assay: Test A preemergence; assay type: in vivo, Setaria faberi; details: for pest or weed control at 125 g/ha: 125 g ai/ha
How it was run: as §1

corn = assay: Test A preemergence; assay type: in vivo, Zea mays; details: for Corn plant response rating (crop injury, 0 = no effect, 100 = complete kill) at 125 g/ha: 125 g ai/ha
How it was run: as §1

horseweed = assay: Test A postemergence; assay type: in vivo, Erigeron canadensis; details: postemergence, 10 days, 0 to 100 scale (0 no effect, 100 complete control); for pest or weed control at 125 g/ha: 125 g ai/ha, read-out: Horseweed plant response rating
How it was run: as §1

rice = assay: Test B flooded paddy test; assay type: in vivo, Oryza sativa; details: 250 g ai/ha, Flood, 13 days, 0 to 100 scale (0 no effect, 100 complete control)
How it was run: as §2

pigweed, palmer [4] = assay: Test A preemergence; assay type: in vivo, Amaranthus palmeri; details: for pest or weed control at 125 g/ha: 125 g ai/ha
How it was run: as §1

soybean = assay: Test A preemergence; assay type: in vivo, Glycine max; details: for plant injury at 125 g/ha: 125 g ai/ha
How it was run: as §1

[5] = Triticum aestivum, post-emergence, 240 h
[6] = Amaranthus palmeri, post-emergence, 240 h
[7] = Bassia scoparia, post-emergence, 240 h
[8] = Erigeron canadensis, post-emergence, 240 h
[9] = 125 g ai/ha, 0 to 100 scale, 0 no effect, 100 complete control
[10] = 500 g ai/ha, visual injury, 0 to 100 scale (0 no effect, 100 complete control)
[11] = 500 g ai/ha, visual injury after 10 days, 0 to 100 scale, 0 is no effect, 100 is complete control

## CCc1ccc(-n2cnc(C(C)C)n2)cc1C(=O)N1C[C@H](C)Oc2c(Cl)cccc21 [Compound 94, [(2S)-8-Chloro-2,3-dihydro-2-methyl-4H-1,4-benzoxazin-4-yl][2-ethyl-5-[3-(1-methylethyl)-1H-1,2,4-triazol-1-yl]phenyl]methanone]
blackgrass; Alopecurus myosuroides, post-emergence, 240 h, 125 g ai/ha, 0 to 100 scale (0 no effect, 100 complete control), read-out: Blackgrass plant response rating
  pest or weed control at 125 g/ha: 60%
blackgrass; Alopecurus myosuroides, post-emergence, 240 h, 500 g ai/ha, visual injury, 0 to 100 scale (0 no effect, 100 complete control), read-out: Plant response rating, Blackgrass
  pest or weed control at 500 g/ha: 90%
wheat; [5]
  plant injury at 125 g/ha: 30%
wheat; Triticum aestivum, post-emergence, 240 h, 500 g ai/ha, visual injury, read-out: Plant response rating, Wheat
  plant injury at 500 g/ha: 70%
oat, wild [1]; Avena fatua, pre-emergence, 240 h, visual injury after 10 days, 0 to 100 scale, 0 is no effect, 100 is complete control, read-out: Plant response rating, Oat, Wild
  pest or weed control at 125 g/ha: 40%
oat, wild [1]; Avena fatua, pre-emergence, 240 h, 500 g ai/ha, 0 to 100 scale (0 no effect, 100 complete control), 10 days, read-out: Plant response rating, Oat, Wild
  pest or weed control at 500 g/ha: 90%
oat, wild [2]; Avena fatua, post-emergence, 240 h, 125 g ai/ha, 0 to 100 scale (0 no effect, 100 complete control), read-out: Oat, Wild plant response rating
  pest or weed control at 125 g/ha: 80%
oat, wild [2]; Avena fatua, post-emergence, 240 h, 500 g ai/ha, visual injury, 0 to 100 scale (0 no effect, 100 complete control), read-out: Plant response rating, Oat, Wild
  pest or weed control at 500 g/ha: 80%
ragweed; Ambrosia artemisiifolia, pre-emergence, 240 h, visual injury after 10 days, 0 to 100 scale, 0 is no effect, 100 is complete control, read-out: Plant response rating, Ragweed
  pest or weed control at 125 g/ha: 0%
ragweed; Ambrosia artemisiifolia, pre-emergence, 240 h, 500 g ai/ha, 0 to 100 scale (0 no effect, 100 complete control), 10 days, read-out: Plant response rating, Ragweed
  pest or weed control at 500 g/ha: 0%
pigweed, palmer [3]; [6]
  pest or weed control at 125 g/ha: 90%
pigweed, palmer [3]; Amaranthus palmeri, post-emergence, 240 h, 500 g ai/ha, visual injury, read-out: Plant response rating, Pigweed, Palmer
  pest or weed control at 500 g/ha: 90%
barnyardgrass; Echinochloa crus-galli, 312 h, read-out: Plant response rating, Barnyardgrass
  pest or weed control at 250 g/ha: 30%
kochia; [7]
  pest or weed control at 125 g/ha: 100%
kochia; Bassia scoparia, post-emergence, 240 h, 500 g ai/ha, visual injury, read-out: Plant response rating, Kochia
  pest or weed control at 500 g/ha: 100%
foxtail, giant; Setaria faberi, pre-emergence, 240 h, visual injury after 10 days, 0 to 100 scale, 0 is no effect, 100 is complete control, read-out: Plant response rating, Foxtail, Giant
  pest or weed control at 125 g/ha: 100%
foxtail, giant; Setaria faberi, pre-emergence, 240 h, 500 g ai/ha, 0 to 100 scale (0 no effect, 100 complete control), 10 days, read-out: Plant response rating, Foxtail, Giant
  pest or weed control at 500 g/ha: 100%
corn; Zea mays, pre-emergence, 240 h, visual injury after 10 days, 0 to 100 scale, 0 is no effect, 100 is complete control
  Corn plant response rating (crop injury, 0 = no effect, 100 = complete kill) at 125 g/ha: 60%
corn; Zea mays, pre-emergence, 240 h, 500 g ai/ha, 0 to 100 scale (0 no effect, 100 complete control), 10 days
  Corn plant response rating (crop injury, 0 = no effect, 100 = complete kill) at 500 g/ha: 90%
horseweed; [8]
  pest or weed control at 125 g/ha: 0%
horseweed; Erigeron canadensis, post-emergence, 240 h, 500 g ai/ha, visual injury, read-out: Plant response rating, Horseweed
  pest or weed control at 500 g/ha: 50%
rice; Oryza sativa, 312 h, read-out: Plant response rating, Rice
  plant injury at 250 g/ha: 0%
pigweed, palmer [4]; Amaranthus palmeri, pre-emergence, 240 h, visual injury after 10 days, 0 to 100 scale, 0 is no effect, 100 is complete control, read-out: Plant response rating, Pigweed, Palmer
  pest or weed control at 125 g/ha: 100%
pigweed, palmer [4]; Amaranthus palmeri, pre-emergence, 240 h, 500 g ai/ha, 0 to 100 scale (0 no effect, 100 complete control), 10 days, read-out: Plant response rating, Pigweed, Palmer
  pest or weed control at 500 g/ha: 100%
soybean; Glycine max, pre-emergence, 240 h, visual injury after 10 days, 0 to 100 scale, 0 is no effect, 100 is complete control, read-out: Plant response rating, Soybean
  plant injury at 125 g/ha: 50%
soybean; Glycine max, pre-emergence, 240 h, 500 g ai/ha, 0 to 100 scale (0 no effect, 100 complete control), 10 days, read-out: Plant response rating, Soybean
  plant injury at 500 g/ha: 100%

## CC(C)c1ncn(-c2cc(C(=O)N3C[C@H](C)Oc4c(Cl)cccc43)c3ccccc3c2)n1 [Compound 146]
blackgrass; [9]
  Blackgrass plant response rating: 10
blackgrass; [10]
  Plant response rating, Blackgrass: 20
wheat; 500 g ai/ha, visual injury
  Plant response rating, Wheat: 30
wheat; [5]
  plant injury at 125 g/ha: 20%
oat, wild [1]; [11]
  Plant response rating, Oat, Wild: 20
oat, wild [1]; Avena fatua, pre-emergence, 240 h, 0 to 100 scale, read-out: Plant response rating, Oat, Wild
  pest or weed control at 125 g/ha: 0%
oat, wild [2]; [9]
  Oat, Wild plant response rating: 0
oat, wild [2]; [10]
  Plant response rating, Oat, Wild: 10
ragweed; [11]
  Plant response rating, Ragweed: 0
ragweed; Ambrosia artemisiifolia, pre-emergence, 240 h, 0 to 100 scale, read-out: Plant response rating, Ragweed
  pest or weed control at 125 g/ha: 0%
pigweed, palmer [3]; 500 g ai/ha, visual injury
  Plant response rating, Pigweed, Palmer: 70
pigweed, palmer [3]; [6]
  pest or weed control at 125 g/ha: 70%
barnyardgrass
  Plant response rating, Barnyardgrass: 0
kochia; 500 g ai/ha, visual injury
  Plant response rating, Kochia: 90
kochia; [7]
  pest or weed control at 125 g/ha: 80%
foxtail, giant; [11]
  Plant response rating, Foxtail, Giant: 100
foxtail, giant; Setaria faberi, pre-emergence, 240 h, 0 to 100 scale, read-out: Plant response rating, Foxtail, Giant
  pest or weed control at 125 g/ha: 80%
corn; [11]
  Plant response rating, Corn: 0
corn; Zea mays, pre-emergence, 240 h, 0 to 100 scale
  Corn plant response rating (crop injury, 0 = no effect, 100 = complete kill) at 125 g/ha: 0%
horseweed; 500 g ai/ha, visual injury
  Plant response rating, Horseweed: 0
horseweed; [8]
  pest or weed control at 125 g/ha: 0%
rice
  Plant response rating, Rice: 0
pigweed, palmer [4]; [11]
  Plant response rating, Pigweed, Palmer: 100
pigweed, palmer [4]; Amaranthus palmeri, pre-emergence, 240 h, 0 to 100 scale, read-out: Plant response rating, Pigweed, Palmer
  pest or weed control at 125 g/ha: 90%
soybean; [11]
  Plant response rating, Soybean: 20
soybean; Glycine max, pre-emergence, 240 h, 0 to 100 scale, read-out: Plant response rating, Soybean
  plant injury at 125 g/ha: 0%
